{
  "source": "patent US11185527B2",
  "about": "“Methods and compositions relating to steroid hormone receptor-dependent cancers” (Wayne State University, priority 2017, dated 2021)",
  "key": {"[1]": {"tested_on": "hormone-independent promoter activation by the splice variant AR-V7", "assay": "Gal4-ELK1 reporter activation by AR-V7 in transfected HeLa cells", "format": "cell-based", "conditions": "10 uM or 20 uM", "experimental": "FIG. 10 is a graph showing results of co-transfection of HeLa cells with the Gal4-TATA-Luc construct and the Gal4-ELK1 fusion protein expression plasmid. The cells were also co-transfected with either the AR-V7 expression plasmid (pLVX-AR-V7) or the corresponding vector plasmid (pLVX). At the time of transfection with AR-V7, the cells were also treated with KCI807 (10 uM or 20 uM) or with the vehicle control. Promoter activity was measured in terms of reporter luciferase activity. In all panels, the error bars represent standard deviation of experimental triplicates. *P<0.05\nHela Cells were plated in a 24-well plate at a concentration of 75,000 cells/well in antibiotic-free red DMEM. The following day the cells were transfected with a total of 300 ng of plasmid DNA/well using Lipofectamine 2000. The cells were incubated for 24h then lysed using luciferase assay lysis buffer 5X from Promega. The luciferase activity of the cell lysates were measured using firefly substrate from Promega and a luminometer (Lumat LB9501, Berthold, Wildbad, Germany).\nThe relatively higher concentrations of the compound required for this inhibition is likely because AR-V7 was overexpressed in the assay system."}, "[2]": {"tested_on": "protein level of AR or AR-V7", "assay": "Western blot of AR in LNCaP, VCaP and 22Rv1 cells", "format": "cell-based", "conditions": "VCaP, 10 μM, 24h", "experimental": "Protein lysates were extracted after 24h of treatment and probed using antibodies to AR and GAPDH (loading control).\nThe treated cells were washed once with phosphate buffered saline (PBS) and then lysed with RIPA buffer (150 mM NaCl, 1% Nonidet P-40, 0.5% sodium deoxycholate, 0.1% SDS, 50 mM Tris of pH 8.0) containing a protease inhibitor cocktail (Pierce, Thermo Fisher Scientific). The cell lysates were then incubated on ice for 40 minutes and vortexed every 10 minutes. Total protein concentrations were estimated using the Bradford Assay (Bio-Rad). Ten micrograms of each protein sample was heated at 95° C. for 5 minutes and resolved by electrophoresis on 8% polyacrylamide-SDS gels and electrophoretically transferred to PVDF membranes (Millipore, Billerica, Mass.). The membranes were then probed overnight at 4° C. with the appropriate primary antibody followed by the appropriate horseradish peroxidase-conjugated secondary antibody. The blots were then developed to visualize the protein bands using the HyGLO"}, "binding of AR to ELK1": {"target": "binding of AR to ELK1 (Homo sapiens, UniProt P10275)", "sequence (P10275 whole entry)": "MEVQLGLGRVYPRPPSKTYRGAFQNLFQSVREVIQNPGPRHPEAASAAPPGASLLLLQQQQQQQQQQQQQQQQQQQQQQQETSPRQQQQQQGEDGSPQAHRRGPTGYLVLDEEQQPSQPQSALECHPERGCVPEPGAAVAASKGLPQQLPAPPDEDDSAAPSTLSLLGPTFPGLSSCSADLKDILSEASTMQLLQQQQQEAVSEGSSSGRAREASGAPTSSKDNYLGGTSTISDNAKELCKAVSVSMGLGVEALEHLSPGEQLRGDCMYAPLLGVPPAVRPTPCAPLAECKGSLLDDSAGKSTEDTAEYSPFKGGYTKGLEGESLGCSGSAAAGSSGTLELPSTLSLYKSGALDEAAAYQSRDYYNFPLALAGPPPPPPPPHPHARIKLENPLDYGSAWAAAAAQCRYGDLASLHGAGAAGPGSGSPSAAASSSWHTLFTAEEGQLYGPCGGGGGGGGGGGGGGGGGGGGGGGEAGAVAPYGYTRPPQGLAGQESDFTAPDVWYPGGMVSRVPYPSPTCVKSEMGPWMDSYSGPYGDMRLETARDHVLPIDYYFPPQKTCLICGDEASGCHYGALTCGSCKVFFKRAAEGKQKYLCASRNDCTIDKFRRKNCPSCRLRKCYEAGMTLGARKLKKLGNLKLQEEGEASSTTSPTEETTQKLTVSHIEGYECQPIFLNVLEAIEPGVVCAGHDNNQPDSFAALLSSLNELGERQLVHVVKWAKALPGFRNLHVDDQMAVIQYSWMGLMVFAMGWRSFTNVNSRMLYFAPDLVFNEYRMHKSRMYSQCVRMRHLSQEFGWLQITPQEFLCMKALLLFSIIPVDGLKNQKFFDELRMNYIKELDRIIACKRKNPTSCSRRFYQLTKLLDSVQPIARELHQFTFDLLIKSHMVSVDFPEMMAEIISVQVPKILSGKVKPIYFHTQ", "assay": "SPR competition: inhibition of binding of AR (analyte) to immobilized ELK1", "conditions": "AR 200 nM as analyte", "description": "The sensor surface was regenerated between experiments by dissociating any formed complex in HBS-N buffer for 30 min, followed by a further 30-min stabilization period. After regeneration, the SPR signal returned to the original level (baseline). In all cases, baseline was established in the presence of the vehicle used for the compounds (DMSO) appropriately diluted in HBS-N buffer. The binding curves were analyzed using the heterogeneous analyte competition model. The kinetic curves were analyzed for a one-to-one Langmuir fitting model provided by with the Biacore 3000 instrument software."}},
  "data": [
    {"smiles": "O=c1cc(-c2cccc(O)c2)oc2cccc(O)c12", "note": "[KCI807, 5,3′-dihydroxyflavone]", "values": [
      {"measurement": "inhibition of promoter activation by AR-V7", "setting": "[1]", "result": "inhibited"},
      {"measurement": "protein level of AR or AR-V7", "setting": "[2]", "result": "in no case did KCI807 treatment alter the protein level"},
      {"measurement": "inhibition of binding of AR to immobilized ELK1", "setting": "binding of AR to ELK1", "result": "blocked binding"}
    ]}
  ]
}
